Results as given in PubChem BioAssay (NCI).
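Protocol summary: plate cells (96-well), add compound at 5 concentrations, incubate 48 h, interpolate endpoints linearly. TGI is the concentration that stops growth completely.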

Legend:
Assay in all cases: DTP human tumour cell line panel, 48 h
UACC-62 melanoma = tested on: UACC-62 melanoma
MOLT-4 leukemia = tested on: MOLT-4 leukemia
ACHN renal = tested on: ACHN renal
IGROV1 ovarian = tested on: IGROV1 ovarian
OVCAR-3 ovarian = tested on: OVCAR-3 ovarian
SF-295 CNS = tested on: SF-295 CNS
SNB-19 CNS = tested on: SNB-19 CNS
SK-MEL-5 melanoma = tested on: SK-MEL-5 melanoma
SNB-78 CNS = tested on: SNB-78 CNS
OVCAR-8 ovarian = tested on: OVCAR-8 ovarian
DLD-1 colon = tested on: DLD-1 colon
MALME-3M melanoma = tested on: MALME-3M melanoma
SR leukemia = tested on: SR leukemia
HCT-15 colon = tested on: HCT-15 colon
HOP-62 NSCLC = tested on: HOP-62 NSCLC
TK-10 renal = tested on: TK-10 renal
SK-OV-3 ovarian = tested on: SK-OV-3 ovarian
SK-MEL-28 melanoma = tested on: SK-MEL-28 melanoma
HCT-116 colon = tested on: HCT-116 colon
NCI-H522 lung = tested on: NCI-H522 lung
CCRF-CEM leukemia = tested on: CCRF-CEM leukemia
HCC-2998 colon = tested on: HCC-2998 colon
LOX IMVI melanoma = tested on: LOX IMVI melanoma
UO-31 renal = tested on: UO-31 renal
RXF-631 renal = tested on: RXF-631 renal
786-0 renal = tested on: 786-0 renal
SF-268 CNS = tested on: SF-268 CNS
LXFL 529 NSCLC = tested on: LXFL 529 NSCLC
HOP-92 NSCLC = tested on: HOP-92 NSCLC
M19-MEL melanoma = tested on: M19-MEL melanoma
RXF 393 renal = tested on: RXF 393 renal
RPMI-8226 leukemia = tested on: RPMI-8226 leukemia
KM12 colon = tested on: KM12 colon
DMS 114 small cell lung = tested on: DMS 114 small cell lung
HT29 colon = tested on: HT29 colon
UACC-257 melanoma = tested on: UACC-257 melanoma
M14 melanoma = tested on: M14 melanoma
SN12C renal = tested on: SN12C renal
NCI-H23 lung = tested on: NCI-H23 lung
NCI-H460 lung = tested on: NCI-H460 lung
A549 NSCLC = tested on: A549 NSCLC
SW-620 colon = tested on: SW-620 colon
OVCAR-5 ovarian = tested on: OVCAR-5 ovarian
K-562 leukemia = tested on: K-562 leukemia
OVCAR-4 ovarian = tested on: OVCAR-4 ovarian
CAKI-1 renal = tested on: CAKI-1 renal
COLO 205 colon = tested on: COLO 205 colon
HOP-18 NSCLC = tested on: HOP-18 NSCLC
SF-539 CNS = tested on: SF-539 CNS
HL-60(TB) leukemia = tested on: HL-60(TB) leukemia
NCI-H226 lung = tested on: NCI-H226 lung
U251 CNS = tested on: U251 CNS
EKVX NSCLC = tested on: EKVX NSCLC
SK-MEL-2 melanoma = tested on: SK-MEL-2 melanoma
KM20L2 colon = tested on: KM20L2 colon
DMS 273 small cell lung = tested on: DMS 273 small cell lung
A498 renal = tested on: A498 renal
SNB-75 CNS = tested on: SNB-75 CNS

Measured: TGI

O=C1OC(CC(=O)c2ccccc2Cl)C(Cl)=C1Cl (stereo unspecified)
not listed: KM20L2 colon | DMS 273 small cell lung | A498 renal | SNB-75 CNS
> 100 µM: all other assays above

COc1cccc(CC(C)N)c1 (stereo unspecified)
not listed: M19-MEL melanoma
> 100 µM: all other assays above
